The source of these data is the supplement of paper PMC10307832.

The subject of the first experiment is HARA. Description: relative viability (nuclei count vs DMSO), 5 days (fraction); higher = more cells survive. The note with it: first compound 8 µM. In outline:
(§1)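 Relative viability equals treated-well nuclei counts divided by vehicle-well nuclei counts. Counts came from 4× images of lung cancer cell lines grown in 1536-well plates for 5 days after pin-tool dosing on the day after seeding. Dosing used one drug alone or a fixed anchor-drug dose plus five library-drug doses (not always all listed) in √10 steps, and values are medians of duplicate plates.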
Take `CCCCCCCCCCCC1=C(O)C(=O)C=C(O)C1=O` [Embelin] + COc1cc2c(Oc3ccc(NC(=O)C4(C(=O)Nc5ccc(F)cc5)CC4)cc3F)ccnc2cc1OCCCN1CCOCC1 [Foretinib] (partner 0.25 µM): the relative viability came to 0.942.

Regarding `CCCCCCCCCCCC1=C(O)C(=O)C=C(O)C1=O` [Embelin] + CS(=O)(=O)N1CCN(Cc2cc3nc(-c4cccc5[nH]ncc45)nc(N4CCOCC4)c3s2)CC1 [Pictilisib] (partner 1 µM), the relative viability was determined as 0.653.

With `CCCCCCCCCCCC1=C(O)C(=O)C=C(O)C1=O` [Embelin] + C[C@@H](Oc1cc(-c2cnn(C3CCNCC3)c2)cnc1N)c1c(Cl)ccc(F)c1Cl [Crizotinib] (partner 1 µM), the relative viability is 1.23.

A further experiment has as its system NCI-H2405. The experiment is described as above. The note with it: first compound 0.08 µM. An outline of the steps:
as §1
Regarding `CCCCCCCCCCCC1=C(O)C(=O)C=C(O)C1=O` [Embelin] + O=C(CCCCCCC(=O)Nc1ccccc1)NO [Vorinostat] (partner 1 µM), the relative viability is 1.01.

`CCCCCCCCCCCC1=C(O)C(=O)C=C(O)C1=O` [Embelin] + Cc1cc(Nc2cc(N3CCN(C)CC3)nc(Sc3ccc(NC(=O)C4CC4)cc3)n2)n[nH]1 [Tozasertib] (partner 0.1 µM) returned a relative viability of 0.816.

In the case of `CCCCCCCCCCCC1=C(O)C(=O)C=C(O)C1=O` [Embelin] + COc1cc2c(Oc3ccc(NC(=O)C4(C(=O)Nc5ccc(F)cc5)CC4)cc3F)ccnc2cc1OCCCN1CCOCC1 [Foretinib] (partner 0.25 µM), the relative viability came out at 1.15.

`CCCCCCCCCCCC1=C(O)C(=O)C=C(O)C1=O` [Embelin] + CS(=O)(=O)N1CCN(Cc2cc3nc(-c4cccc5[nH]ncc45)nc(N4CCOCC4)c3s2)CC1 [Pictilisib] (partner 1 µM) came in with a relative viability of 0.555.

Turning to `CCCCCCCCCCCC1=C(O)C(=O)C=C(O)C1=O` [Embelin] + C[C@@H](Oc1cc(-c2cnn(C3CCNCC3)c2)cnc1N)c1c(Cl)ccc(F)c1Cl [Crizotinib] (partner 1 µM), the relative viability worked out at 0.908.

The experiment is the same for the next values; noted with them: first compound 0.8 µM.
In the case of `CCCCCCCCCCCC1=C(O)C(=O)C=C(O)C1=O` [Embelin] + O=C(CCCCCCC(=O)Nc1ccccc1)NO [Vorinostat] (partner 1 µM), the relative viability was determined as 1.13.

As for `CCCCCCCCCCCC1=C(O)C(=O)C=C(O)C1=O` [Embelin] + Cc1cc(Nc2cc(N3CCN(C)CC3)nc(Sc3ccc(NC(=O)C4CC4)cc3)n2)n[nH]1 [Tozasertib] (partner 0.1 µM), the relative viability came to 0.798.

In the case of `CCCCCCCCCCCC1=C(O)C(=O)C=C(O)C1=O` [Embelin] + COc1cc2c(Oc3ccc(NC(=O)C4(C(=O)Nc5ccc(F)cc5)CC4)cc3F)ccnc2cc1OCCCN1CCOCC1 [Foretinib] (partner 0.25 µM), the relative viability worked out at 1.14.

On to `CCCCCCCCCCCC1=C(O)C(=O)C=C(O)C1=O` [Embelin] + CS(=O)(=O)N1CCN(Cc2cc3nc(-c4cccc5[nH]ncc45)nc(N4CCOCC4)c3s2)CC1 [Pictilisib] (partner 1 µM), for which the relative viability was determined as 0.59.

`CCCCCCCCCCCC1=C(O)C(=O)C=C(O)C1=O` [Embelin] + C[C@@H](Oc1cc(-c2cnn(C3CCNCC3)c2)cnc1N)c1c(Cl)ccc(F)c1Cl [Crizotinib] (partner 1 µM) showed a relative viability of 0.976.

The same experiment, now with this note: first compound 2.53 µM.
Compound `CCCCCCCCCCCC1=C(O)C(=O)C=C(O)C1=O` [Embelin] + O=C(CCCCCCC(=O)Nc1ccccc1)NO [Vorinostat] (partner 1 µM) returned a relative viability of 0.95.

For `CCCCCCCCCCCC1=C(O)C(=O)C=C(O)C1=O` [Embelin] + Cc1cc(Nc2cc(N3CCN(C)CC3)nc(Sc3ccc(NC(=O)C4CC4)cc3)n2)n[nH]1 [Tozasertib] (partner 0.1 µM), the relative viability is 0.847.

Turning to `CCCCCCCCCCCC1=C(O)C(=O)C=C(O)C1=O` [Embelin] + COc1cc2c(Oc3ccc(NC(=O)C4(C(=O)Nc5ccc(F)cc5)CC4)cc3F)ccnc2cc1OCCCN1CCOCC1 [Foretinib] (partner 0.25 µM), the relative viability came to 1.11.

For the compound `CCCCCCCCCCCC1=C(O)C(=O)C=C(O)C1=O` [Embelin] + CS(=O)(=O)N1CCN(Cc2cc3nc(-c4cccc5[nH]ncc45)nc(N4CCOCC4)c3s2)CC1 [Pictilisib] (partner 1 µM), the relative viability stood at 0.439.

In turn, `CCCCCCCCCCCC1=C(O)C(=O)C=C(O)C1=O` [Embelin] + C[C@@H](Oc1cc(-c2cnn(C3CCNCC3)c2)cnc1N)c1c(Cl)ccc(F)c1Cl [Crizotinib] (partner 1 µM) had a relative viability of 0.892.

The experiment is the same for the next values; noted with them: first compound 8 µM.
`CCCCCCCCCCCC1=C(O)C(=O)C=C(O)C1=O` [Embelin] + O=C(CCCCCCC(=O)Nc1ccccc1)NO [Vorinostat] (partner 1 µM) came in with a relative viability of 0.899.

`CCCCCCCCCCCC1=C(O)C(=O)C=C(O)C1=O` [Embelin] + Cc1cc(Nc2cc(N3CCN(C)CC3)nc(Sc3ccc(NC(=O)C4CC4)cc3)n2)n[nH]1 [Tozasertib] (partner 0.1 µM) showed a relative viability of 0.826.

Turning to `CCCCCCCCCCCC1=C(O)C(=O)C=C(O)C1=O` [Embelin] + COc1cc2c(Oc3ccc(NC(=O)C4(C(=O)Nc5ccc(F)cc5)CC4)cc3F)ccnc2cc1OCCCN1CCOCC1 [Foretinib] (partner 0.25 µM), the relative viability was found to be 1.06.

In the case of `CCCCCCCCCCCC1=C(O)C(=O)C=C(O)C1=O` [Embelin] + CS(=O)(=O)N1CCN(Cc2cc3nc(-c4cccc5[nH]ncc45)nc(N4CCOCC4)c3s2)CC1 [Pictilisib] (partner 1 µM), the relative viability came to 0.323.

Consider `CCCCCCCCCCCC1=C(O)C(=O)C=C(O)C1=O` [Embelin] + C[C@@H](Oc1cc(-c2cnn(C3CCNCC3)c2)cnc1N)c1c(Cl)ccc(F)c1Cl [Crizotinib] (partner 1 µM), for which the relative viability worked out at 0.955.

Another experiment has as its system HCC-827. The experiment is described as above. As to conditions: first compound 0.08 µM. An outline of the steps:
as §1
In turn, `CCCCCCCCCCCC1=C(O)C(=O)C=C(O)C1=O` [Embelin] + O=C(CCCCCCC(=O)Nc1ccccc1)NO [Vorinostat] (partner 1 µM) displayed a relative viability of 0.806.

Regarding `CCCCCCCCCCCC1=C(O)C(=O)C=C(O)C1=O` [Embelin] + Cc1cc(Nc2cc(N3CCN(C)CC3)nc(Sc3ccc(NC(=O)C4CC4)cc3)n2)n[nH]1 [Tozasertib] (partner 0.1 µM), the relative viability was found to be 0.428.

Compound `CCCCCCCCCCCC1=C(O)C(=O)C=C(O)C1=O` [Embelin] + COc1cc2c(Oc3ccc(NC(=O)C4(C(=O)Nc5ccc(F)cc5)CC4)cc3F)ccnc2cc1OCCCN1CCOCC1 [Foretinib] (partner 0.25 µM) gave a relative viability of 0.993.

In turn, `CCCCCCCCCCCC1=C(O)C(=O)C=C(O)C1=O` [Embelin] + CS(=O)(=O)N1CCN(Cc2cc3nc(-c4cccc5[nH]ncc45)nc(N4CCOCC4)c3s2)CC1 [Pictilisib] (partner 1 µM) gave a relative viability of 1.03.

Turning to `CCCCCCCCCCCC1=C(O)C(=O)C=C(O)C1=O` [Embelin] + C[C@@H](Oc1cc(-c2cnn(C3CCNCC3)c2)cnc1N)c1c(Cl)ccc(F)c1Cl [Crizotinib] (partner 1 µM), the relative viability was 0.98.

Still in this experiment, the particulars now being: first compound 0.8 µM.
As for `CCCCCCCCCCCC1=C(O)C(=O)C=C(O)C1=O` [Embelin] + O=C(CCCCCCC(=O)Nc1ccccc1)NO [Vorinostat] (partner 1 µM), the relative viability amounted to 0.915.

As to `CCCCCCCCCCCC1=C(O)C(=O)C=C(O)C1=O` [Embelin] + Cc1cc(Nc2cc(N3CCN(C)CC3)nc(Sc3ccc(NC(=O)C4CC4)cc3)n2)n[nH]1 [Tozasertib] (partner 0.1 µM), the relative viability was 0.447.
